Patent publication US9174968B2, “Pyrimidinone compounds for use in the treatment of diseases or conditions mediated by LP-PLA2” (GLAXO GROUP LIMITED, priority 2010, dated 2015)
Structures can show the parent of a compound that is named as a salt.

Biological target: T1, Lp-PLA2 from plasma (pooled human plasma) (Homo sapiens, UniProt Q13093)
T1 construct: from tissue; host or cells: pooled human plasma
T1 sequence (Q13093 22-441): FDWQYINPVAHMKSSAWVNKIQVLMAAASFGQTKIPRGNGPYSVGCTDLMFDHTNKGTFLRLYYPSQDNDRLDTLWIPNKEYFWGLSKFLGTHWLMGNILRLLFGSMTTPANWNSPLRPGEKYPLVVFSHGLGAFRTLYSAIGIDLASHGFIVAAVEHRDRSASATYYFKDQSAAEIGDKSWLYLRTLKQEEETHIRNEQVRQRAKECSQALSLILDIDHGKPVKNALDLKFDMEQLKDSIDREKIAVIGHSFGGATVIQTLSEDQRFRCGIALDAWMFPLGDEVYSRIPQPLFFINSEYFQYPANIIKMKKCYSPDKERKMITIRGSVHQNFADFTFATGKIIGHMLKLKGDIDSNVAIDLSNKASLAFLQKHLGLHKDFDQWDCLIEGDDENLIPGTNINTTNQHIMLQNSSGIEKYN
Test: Lp-PLA2 human plasma assay (Thio-PAF assay)
Format: biochemical
Conditions: read-out: pIC50 in the thio-PAF assay (converted)
From the text: (3) Lipoprotein-Associated Phospholipase A2 (Lp-PLA2) Human Plasma Assay (Also Referred to as “Thio-PAF Assay”)
The human plasma assay utilizes a thioester analog of PAF (phosphatidylcholine), where hydrolysis yields to the formation of a phospholipid containing a free thiol group. The amount of thiol is quantitated continuously by reacting with CPM (7-diethylamino-3-(4′-maleimidylphenyl)-4-methylcoumarin), a maleimide which increases in fluorescence after Michael addition of thiols. This assay may detect the activity of Lp-PLA2 from plasma, as determined by specific inhibition by Lp-PLA2 inhibitors.
The thio-PAF assay was run as a quenched 15 μL assay. Compounds source plate was prepared by making 1:3 (by volume) serial dilution of the compounds into pure DMSO on 384-well microplate. 0.01 μL of compounds on compound source plate were transferred to 384 well Greiner 784076 (black) low-volume plates by ECHO liquid dispenser. 8 μL pooled human plasma, which was previously aliquoted and frozen, was added. Plates were centrifuged for 10 sec at 500 rpm. After 30 minutes preincubation, 2 μL of substrate (2.5 mM thio-PAF, 3.2 mM NEM (N-ethylmaleimide) [made fresh daily in DMSO], and 32 μM CPM [from a DMSO stock] in assay buffer of 50 mM HEPES, pH7.4, 150 mM NaCl, 1 mM CHAPS was added to 384 well Greiner 784076 (black) low-volume plates by BRAVO liquid handling station. Plates were centrifuged for 10 sec at 500 rpm. Plate was covered to protect from light and incubated for 2 min at room temperature. Reaction was quenched with 5 μL of 5% aqueous trifluoroacetic acid (TFA). Plates were covered to protect from light and incubated for 40 min at room temperature. Plates were read at ex: 380/em: 485 using-Envision microplate reader. PIC50 data, curve and QC analysis was conducted by using XLFit module in Excel.
All exemplified compounds of the present invention were tested in thio-PAF assay or similar assay as described above.

IC50, > 10 µM:
O=c1nc(OCCc2ccc(Oc3ccc(Cl)c(C(F)(F)F)c3)cc2)[nH]cc1Cc1c(O)cc(F)cc1F [E19, 2-{[2-(4-{[4-Chloro-3-(trifluoromethyl)phenyl]oxy}phenyl)ethyl]oxy}-5-[(2,4-difluoro-6-hydroxyphenyl)methyl]-4(1H)-pyrimidinone]
CCc1c[nH]c(OCCc2ccc(Oc3ccc(Cl)c(C(F)(F)F)c3)cc2)nc1=O [E27, 2-{[2-(4-{[4-Chloro-3-(trifluoromethyl)phenyl]oxy}phenyl)ethyl]oxy}-5-ethyl-4(1H)-pyrimidinone]
O=c1nc(CCc2ccc(Oc3ccc(F)cc3)cc2)[nH]cc1Cc1cncnc1 [E39, 2-(4-(4-fluorophenoxy)phenethyl)-5-(pyrimidin-5-ylmethyl)pyrimidin-4(1H)-one]
Cn1cc(Cc2c[nH]c(CCc3ccc(Oc4cccc(C(F)(F)F)c4)cc3)nc2=O)cn1 [E50, 5-((1-methyl-1H-pyrazol-4-yl)methyl)-2-(4-(3-(trifluoromethyl)phenoxy)phenethyl)pyrimidin-4(1H)-one]
COc1ncc(Cc2c[nH]c(SCc3ccc(Oc4ccc(F)cc4)cc3)nc2=O)cn1 [E52, 2-((4-(4-fluorophenoxy)benzyl)thio)-5-((2-methoxypyrimidin-5-yl)methyl)pyrimidin-4(1H)-one]
N#Cc1ccc(Cc2c[nH]c(SCc3ccc(Oc4ccc(Cl)c(C(F)(F)F)c4)cc3)nc2=O)cc1 [E62, 4-[(2-{[(4-{[4-chloro-3-(trifluoromethyl)phenyl]oxy}phenyl)methyl]thio}-4-oxo-1,4-dihydro-5-pyrimidinyl)methyl]benzonitrile]
CCc1c[nH]c(SCc2ccc(Oc3ccc(Cl)c(C(F)(F)F)c3)cc2)nc1=O [E63, 2-{[(4-{[4-chloro-3-(trifluoromethyl)phenyl]oxy}phenyl)methyl]thio}-5-ethyl-4(1H)-pyrimidinone]
Cn1cc(Cc2c[nH]c(SCc3ccc(Oc4ccc(Cl)c(C(F)(F)F)c4)c(C#N)c3)nc2=O)c2ccccc21 [E81, 2-(4-chloro-3-(trifluoromethyl)phenoxy)-5-(((5-((1-methyl-1H-indol-3-yl)methyl)-4-oxo-1,4-dihydropyrimidin-2-yl)thio)methyl)benzonitrile]
CCc1c[nH]c(SCc2ccc(Oc3ccc(Cl)c(C(F)(F)F)c3)c(C#N)c2)nc1=O [E83, 2-{[4-chloro-3-(trifluoromethyl)phenyl]oxy}-5-{[(5-ethyl-4-oxo-1,4-dihydro-2-pyrimidinyl)thio]methyl}benzonitrile]
COc1ncc(Cc2c[nH]c(SCc3ccc(Oc4ccc(F)c(C(F)(F)F)c4)c(C#N)c3)nc2=O)cn1 [E89, 2-{[4-fluoro-3-(trifluoromethyl)phenyl]oxy}-5-{[(5-{[2-(methyloxy)-5-pyrimidinyl]methyl}-4-oxo-1,4-dihydro-2-pyrimidinyl)thio]methyl}benzonitrile]
CCc1c[nH]c(SCc2ccc(Oc3cccc(C(F)(F)F)c3)c(C#N)c2)nc1=O [E98, 5-{[(5-ethyl-4-oxo-1,4-dihydro-2-pyrimidinyl)thio]methyl}-2-{[3-(trifluoromethyl)phenyl]oxy}benzonitrile]
N#Cc1ccc(Cc2c[nH]c(SCCc3ccc(Oc4ccc(Cl)c(C(F)(F)F)c4)cc3)nc2=O)cc1 [E114, 4-[(2-{[2-(4-{[4-chloro-3-(trifluoromethyl)phenyl]oxy}phenyl)ethyl]thio}-4-oxo-1,4-dihydro-5-pyrimidinyl)methyl]benzonitrile]
CCc1c[nH]c(OCCc2cc(F)c(Oc3ccc(Cl)c(C(F)(F)F)c3)c(F)c2)nc1=O [E125, 2-{[2-(4-{[4-chloro-3-(trifluoromethyl)phenyl]oxy}-3,5-difluorophenyl)ethyl]oxy}-5-ethyl-4(1H)-pyrimidinone]
O=C(O)Cc1c[nH]c(OCCc2ccc(Oc3ccc(Cl)c(C(F)(F)F)c3)cc2)nc1=O [E131, (2-{[2-(4-{[4-chloro-3-(trifluoromethyl)phenyl]oxy}phenyl)ethyl]oxy}-4-oxo-1,4-dihydro-5-pyrimidinyl)acetic acid]
CCc1c[nH]c(OCCc2ccc(Oc3ccc(C(F)(F)F)nc3)cc2)nc1=O [E140, 5-ethyl-2-{[2-(4-{[6-(trifluoromethyl)-3-pyridinyl]oxy}phenyl)ethyl]oxy}-4(1H)-pyrimidinone]
CCc1cn(C)c(OCCc2ccc(Oc3ccc(C(F)(F)F)nc3)cc2)nc1=O [E142, 5-ethyl-1-methyl-2-{[2-(4-{[6-(trifluoromethyl)-3-pyridinyl]oxy}phenyl)ethyl]oxy}-4(1H)-pyrimidinone]
CCc1cn(C)c(OCCc2ccc(Oc3cnc(C(F)(F)F)nc3)cc2)nc1=O [E144, 5-ethyl-1-methyl-2-(4-((2-(trifluoromethyl)pyrimidin-5-yl)oxy)phenethoxy)pyrimidin-4(1H)-one, trifluoroacetic acid salt]
COc1ncc(Cc2c[nH]c(OCCc3ccc(Oc4ncc(Cl)cn4)cc3)nc2=O)cn1 [E145, 2-(4-((5-chloropyrimidin-2-yl)oxy)phenethoxy)-5-((2-methoxypyrimidin-5-yl)methyl)pyrimidin-4(1H)-one, Trifluoroacetic acid salt]
Cc1cccc(Oc2ccc(CCOc3nc(=O)c(Cc4cnn(C)c4)c[nH]3)cc2)n1 [E158, 5-[(1-methyl-1H-pyrazol-4-yl)methyl]-2-[(2-{4-[(6-methyl-2-pyridinyl)oxy]phenyl}ethyl)oxy]-4(1H)-pyrimidinone]
CCc1c[nH]c(OCCc2ccc(Oc3cccc(C)n3)cc2)nc1=O [E160, 5-ethyl-2-[(2-{4-[(6-methyl-2-pyridinyl)oxy]phenyl}ethyl)oxy]-4(1H)-pyrimidinone]
CCc1c[nH]c(OCCc2ccc(Oc3cc(Cl)cc(C(F)(F)F)c3)cc2)nc1=O [E163, 2-{[2-(4-{[3-chloro-5-(trifluoromethyl)phenyl]oxy}phenyl)ethyl]oxy}-5-ethyl-4(1H)-pyrimidinone]
CCc1c[nH]c(OCCc2cc(F)c(Oc3cnc(C(F)(F)F)nc3)c(F)c2)nc1=O [E170, 2-(3,5-difluoro-4-((2-(trifluoromethyl)pyrimidin-5-yl)oxy)phenethoxy)-5-ethylpyrimidin-4(1H)-one]
CCc1cn(C)c(OCCc2cc(F)c(Oc3cnc(C(F)(F)F)nc3)c(F)c2)nc1=O [E171, 2-(3,5-difluoro-4-((2-(trifluoromethyl)pyrimidin-5-yl)oxy)phenethoxy)-5-ethyl-1-methylpyrimidin-4(1H)-one]
CCc1c[nH]c(OCCc2ccc(Oc3ccc(Cl)c(C(F)(F)F)c3)c(F)c2)nc1=O [E173, 2-{[2-(4-{[4-chloro-3-(trifluoromethyl)phenyl]oxy}-3-fluorophenyl)ethyl]oxy}-5-ethyl-4(1H)-pyrimidinone]
CCc1c[nH]c(OCCc2ccc(Oc3ccc(Cl)c(OC(F)(F)F)c3)cc2)nc1=O [E179]
CCc1c[nH]c(OCCc2ccc(Oc3ccc(Cl)c(C)c3)cc2)nc1=O [E183, 2-[(2-{4-[(4-chloro-3-methylphenyl)oxy]phenyl}ethyl)oxy]-5-ethyl-4(1H)-pyrimidinone]
CCc1cn(C)c(OCCc2ccc(Oc3ccc(Cl)c(C)c3)cc2)nc1=O [E184, 2-[(2-{4-[(4-chloro-3-methylphenyl)oxy]phenyl}ethyl)oxy]-5-ethyl-1-methyl-4(1H)-pyrimidinone]
CN(CCc1ccc(Oc2ccc(F)cc2)cc1)c1nc(=O)c(Cc2cncnc2)c[nH]1 [E192, 2-{2-[4-(4-fluoro-phenoxy)phenyl]-ethyl-methyl-amino}-5-pyrimidin-5-ylmethyl-1H-pyrimidin-4-one]
Cc1c[nH]c(NCCc2ccc(Oc3ccc(Cl)c(C(F)(F)F)c3)cc2)nc1=O [E198, 2-{2-[4-(4-Chloro-3-trifluoromethyl-phenoxy)-phenyl]-ethylamino}-5-methyl-1H-pyrimidin-4-one]
